Assay results: US12048680B2, “Use of Gemfibrozil and derivative thereof for treatment and/or prevention of neurodegenerative disease” (Kunming Institute of Zoology Chinese Academy of Sciences, priority 2018, dated 2024)

How the values were obtained:
APP/PS1ΔE9 mice = test: Open field experiment (anxiety symptoms); format: in vivo, mouse; conditions: 2 months of administration
Method: (§1) Gemfibrozil was administered to 8-month-old APP/PS1ΔE9 mice (male and female halves). Gemfibrozil was first dissolved in dimethyl sulfoxide (DMSO) at a concentration of 50 mg/mL, and then diluted to a final concentration of 50 μg/mL with mouse drinking water to obtain a drug solution. The mice in the administration group were allowed to freely drink the drug solution containing gemfibrozil, in which the final concentration of DMSO in the solution was 0.1%; and the mice in the control group were allowed to drink water containing 0.1% DMSO freely. All drinking devices contained with Gemfibrozil were wrapped in aluminum foil to prevent decomposition by exposure. During dosing, the drug solution was replaced every 2 days. Mice were measured daily for water consumption. After 2 months of dosing, all mice were subjected to behavioural experiments. Mice were placed in the laboratory to be behaviourally tested one hour prior to the start of daily behavioural studies, and all behavioural experiments were completed between 9 and 17 o'clock. All experiments involving animals were approved by Animal Ethics Committee of the Kunming Institute of Zoology, CAS. We evaluated the anxiety symptom behavior of APP/PS1ΔE9 mice 2 months after administration of Gemfibrozil using an open field experiment. […]

PSD-95 protein = test: Immunohistochemical staining of mouse brain tissue for PSD-95; format: in vivo; conditions: hippocampus of APP/PS1ΔE9 mice treated for 2 months (A-B in FIG. 3)
hippocampal neurons = test: Golgi staining, dendritic spine density in mouse brain neurons; format: in vivo; conditions: hippocampal neurons of APP/PS1ΔE9 mice treated for 2 months (C-D in FIG. 3)
Method: as §1, with “7.” for “We evaluated the anxiety symptom behavior of APP/PS1ΔE9 mice 2 months after administration of Gemfibrozil using an open field experiment.”

Aβ plaques = test: Immunohistochemical staining of Aβ plaques with Aβ (4G8) antibodies; format: in vivo; conditions: brain tissue of APP/PS1ΔE9 mouse, vs control group (A-C in FIG. 5)
astrocytes and microglia = test: Immunofluorescence staining of mouse brain tissue, glia co-localization with Aβ plaques; format: in vivo; conditions: brain tissue of APP/PS1ΔE9 mice

Structure (SMILES): Cc1ccc(C)c(OCCCC(C)(C)C(=O)O)c1 [Gemfibrozil, 2,2-dimethyl-5-(2,5-dimethylphenoxy) pentanoic acid]
- anxiety symptoms (APP/PS1ΔE9 mice; vs control group): significantly alleviated
- lingering time in the open field central region (APP/PS1ΔE9 mice; vs control group (A, C in FIG. 2)): significantly increased
- PSD-95 immunoreactivity (PSD-95 protein): significantly up-regulated
- dendritic spine density (hippocampal neurons): significantly up-regulated
- deposition of Aβ plaques labeled with Aβ (4G8) antibodies (Aβ plaques): significantly reduced
- degree of co-localization of the marker Iba1 for microglia with Aβ plaques (astrocytes and microglia; vs control APP/PS1ΔE9 mice (A-B in FIG. 6)): significantly increased
- degree of co-localization of GFAP for astrocytes with Aβ plaques (astrocytes and microglia; vs control APP/PS1ΔE9 mice (C-D in FIG. 6)): significantly increased
